Measurements published in patent US6124337A, “Methods and formulations for modulating the human sexual response” (priority 1999, dated 2000).
Structures can show the parent of a compound that is named as a salt.

Legend:
impotentia erectionis = details: buccal, 100 I.U. three times a day for 14 days; cited from earlier work
male erectile ability = test: Single blind trial of rapidly dissolving oral formulation on male erectile ability; format: in vivo, human; details: 40 mg dose
Procedure: In order to test the ability of a rapidly dissolving oral formulation of phentolamine mesylate on erectile ability, a single blind trial was conducted.
All patients had impotence of organic etiology. Patients were selected for inclusion in the trial based medical history and physical examination with a duration of impotence of less than 3-4 years. Each patient was given two tablets: a rapidly dissolving tablet containing 40 mg of phentolamine mesylate (see Table 1), and a placebo tablet lacking phentolamine mesylate.
Patients were asked to take one tablet 20 to 30 minutes before attempting coitus. One or more days after using the first tablet, the patients repeated the process with the second tablet.
Patients were advised not to consume alcohol prior to using the tablets and were told not to expect erection without sexual stimulation. […] Patients were also asked to report side effects.

Structure (SMILES) | Patients with improvement of impotentia erectionis (impotentia erectionis) | Success in improving erectile ability (male erectile ability)
CC[C@H](C)[C@@H]1NC(=O)[C@H](Cc2ccc(O)cc2)NC(=O)[C@@H](N)CSSC[C@@H](C(=O)N2CCC[C@H]2C(=O)N[C@@H](CC(C)C)C(=O)NCC(N)=O)NC(=O)[C@H](CC(N)=O)NC(=O)[C@H](CCC(N)=O)NC1=O [oxytocin] | 12 of the 16 | –
Cc1ccc(N(CC2=NCCN2)c2cccc(O)c2)cc1 [phentolamine mesylate] | – | significant success
